Marks after values point to notes of the source that are not given here. One block for each compound: values may come before it.
Legend:
GST-PXRLBD = target: T1, GST-PXRLBD (Homo sapiens, UniProt O75469); assay: Interaction of BODIPY Fl-vindoline with GST-PXRLBD, Kd from specific binding curve; conditions: buffer 50 mM Tris, 50 mM KCl, 1 mM CHAPS, 0.1 mg/mL BSA, 0.05 mM DTT, pH 7.5
T1 construct: GST (N)
T1 sequence (O75469 146-433 limits assumed): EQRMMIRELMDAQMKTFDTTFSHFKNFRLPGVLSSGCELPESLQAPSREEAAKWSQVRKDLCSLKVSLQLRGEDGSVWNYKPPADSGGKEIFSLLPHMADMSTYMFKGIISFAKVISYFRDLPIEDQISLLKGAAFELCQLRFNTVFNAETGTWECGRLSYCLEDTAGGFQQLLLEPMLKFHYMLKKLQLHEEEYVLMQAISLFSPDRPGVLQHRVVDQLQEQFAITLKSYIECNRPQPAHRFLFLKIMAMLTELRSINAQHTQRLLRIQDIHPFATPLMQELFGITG
Description: Assay was performed using a buffer solution containing 50 mM Tris, 50 mM KCl, 1 mM CHAPS, 0.1 mg/mL BSA, and 0.05 mM DTT (pH=7.5).

hPXR [1] = target: T2, hPXR (Homo sapiens, UniProt O75469); assay: Invitrogen hPXR TR-FRET binding kit, Fluormone PXR (SXR) Green as probe (published reports); conditions: calculated from published data by equation 2
T2 construct: literature Invitrogen
T2 sequence (O75469 1-434): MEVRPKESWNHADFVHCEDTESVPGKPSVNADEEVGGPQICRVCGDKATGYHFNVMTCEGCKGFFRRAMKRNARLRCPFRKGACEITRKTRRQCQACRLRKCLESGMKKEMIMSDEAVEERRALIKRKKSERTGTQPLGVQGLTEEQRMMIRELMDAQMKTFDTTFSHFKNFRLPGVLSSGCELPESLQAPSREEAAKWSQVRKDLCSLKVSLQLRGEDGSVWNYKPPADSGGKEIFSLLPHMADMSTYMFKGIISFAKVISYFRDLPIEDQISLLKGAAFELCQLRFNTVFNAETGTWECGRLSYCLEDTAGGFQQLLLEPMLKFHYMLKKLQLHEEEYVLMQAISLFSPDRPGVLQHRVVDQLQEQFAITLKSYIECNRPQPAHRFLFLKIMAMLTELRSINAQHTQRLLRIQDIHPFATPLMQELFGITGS

hPXR [2] = target: T2, hPXR; conditions: cited from earlier work; for Activity (Fluormone PXR (SXR) Green as Probe), % at single concentration: 1000 μM, published report (Lau et al.)
[3] = Solubility of test compound in the TR-FRET assay; conditions: 100 μM

Kd (GST-PXRLBD): 256 nM
SMILES: CC[C@]12C=CCN3CC[C@@]4(c5ccc(OC)cc5N(C)[C@H]4[C@@](O)(C(=O)OC)[C@@H]1OC(=O)CCC1=[N+]4C(C=C1)Cc1c(C)cc(C)n1[B-]4(F)F)[C@@H]32 (stereo partly drawn) [BODIPY Fl-vindoline, BODIPY FL vindoline]

Ki (hPXR [1]): 1000 nM
Solubility in the assay [3]: incomplete solubility
SMILES: Clc1ccccc1C(c1ccccc1)(c1ccccc1)n1ccnc1 [Clotrimazole, clotrimazole]
IC50 (hPXR [2]; values from published reports, read-out: IC50 (Fluormone PXR (SXR) Green as Probe)): 2000 nM

SMILES: C[C@@H]1C(=O)O[C@H]2C[C@@]34[C@H]5C[C@@H](C(C)(C)C)[C@]36[C@@H](OC(=O)[C@@H]6O)O[C@@]4(C(=O)O5)[C@]21O [Ginkgolide A, ginkgolide A]
Activity (Fluormone PXR (SXR) Green as Probe), % at single concentration (hPXR [2]): 54% (1000 μM)^g

SMILES: CC1C(=O)OC2C(O)C34C5CC(C(C)(C)C)C36C(OC(=O)C6O)OC4(C(=O)O5)C12O (stereo not drawn) [Ginkgolide B, ginkgolide B]
Activity (Fluormone PXR (SXR) Green as Probe), % at single concentration (hPXR [2]): 48% (1000 μM)^g

From patent US20160033531A1, “METHOD AND COMPOSITIONS FOR DETECTING BINDING TO THE PREGNANE X RECEPTOR” (ST. JUDE CHILDREN'S RESEARCH HOSPITAL, priority 2013, published 2016)
